In assay [1] the target is T1, Transcription intermediary factor 1-alpha (Homo sapiens, UniProt O15164).
T1 sequence (O15164 whole entry): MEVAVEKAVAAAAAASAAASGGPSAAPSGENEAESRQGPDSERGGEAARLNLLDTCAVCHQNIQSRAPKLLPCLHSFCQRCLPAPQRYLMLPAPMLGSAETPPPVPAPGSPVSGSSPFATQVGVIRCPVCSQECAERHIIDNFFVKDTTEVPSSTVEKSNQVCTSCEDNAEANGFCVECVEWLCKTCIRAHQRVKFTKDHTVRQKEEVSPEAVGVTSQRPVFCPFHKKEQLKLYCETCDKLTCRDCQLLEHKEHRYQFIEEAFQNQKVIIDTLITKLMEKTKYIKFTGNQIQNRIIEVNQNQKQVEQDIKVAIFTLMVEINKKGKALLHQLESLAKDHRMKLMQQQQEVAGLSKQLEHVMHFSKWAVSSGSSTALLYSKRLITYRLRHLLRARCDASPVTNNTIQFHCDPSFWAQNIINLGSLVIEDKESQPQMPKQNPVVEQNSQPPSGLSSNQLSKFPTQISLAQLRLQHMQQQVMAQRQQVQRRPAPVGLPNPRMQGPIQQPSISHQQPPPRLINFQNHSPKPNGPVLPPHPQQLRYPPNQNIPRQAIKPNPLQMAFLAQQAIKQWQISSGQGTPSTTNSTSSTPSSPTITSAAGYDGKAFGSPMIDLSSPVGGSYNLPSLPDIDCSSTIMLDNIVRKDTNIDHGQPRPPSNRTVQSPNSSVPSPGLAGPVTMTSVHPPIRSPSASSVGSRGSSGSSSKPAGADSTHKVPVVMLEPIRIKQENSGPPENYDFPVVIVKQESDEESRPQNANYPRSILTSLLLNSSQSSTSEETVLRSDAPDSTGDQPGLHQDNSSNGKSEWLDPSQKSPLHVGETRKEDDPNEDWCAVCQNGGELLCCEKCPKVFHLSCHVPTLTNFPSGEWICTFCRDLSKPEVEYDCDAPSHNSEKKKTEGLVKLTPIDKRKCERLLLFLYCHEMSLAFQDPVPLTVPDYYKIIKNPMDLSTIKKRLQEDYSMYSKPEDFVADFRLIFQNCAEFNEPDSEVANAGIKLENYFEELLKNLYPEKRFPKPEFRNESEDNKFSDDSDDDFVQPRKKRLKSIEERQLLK
As to the kind of experiment: Binding affinity to biotinylated TRIM24 (790 to 972 amino acid residues) (unknown origin) expressed in Rosetta2 DE3 cells by bio-layer interferometry method.

Assay [2] deals with Bromodomain-containing protein 2 (Homo sapiens, UniProt P25440). As to the kind of experiment: Displacement of FAM-labeled ZBA248 from BRD2 BD2 (349 to 460 amino acid residues) (unknown origin) expressed in Rosetta2 DE3 cells after 30 mins by fluorescence polarization assay. On the technique in general: In fluorescence polarisation assays a small probe gives low polarisation when free and higher when bound to something large.

Assay [3] has as its target Bromodomain-containing protein 4 (Homo sapiens, UniProt O60885). The experiment in a line: biochemical.

Molecules are shown by their SMILES.

Chain of Bromodomain-containing protein 2 (P25440 whole entry, the tested form may be a part): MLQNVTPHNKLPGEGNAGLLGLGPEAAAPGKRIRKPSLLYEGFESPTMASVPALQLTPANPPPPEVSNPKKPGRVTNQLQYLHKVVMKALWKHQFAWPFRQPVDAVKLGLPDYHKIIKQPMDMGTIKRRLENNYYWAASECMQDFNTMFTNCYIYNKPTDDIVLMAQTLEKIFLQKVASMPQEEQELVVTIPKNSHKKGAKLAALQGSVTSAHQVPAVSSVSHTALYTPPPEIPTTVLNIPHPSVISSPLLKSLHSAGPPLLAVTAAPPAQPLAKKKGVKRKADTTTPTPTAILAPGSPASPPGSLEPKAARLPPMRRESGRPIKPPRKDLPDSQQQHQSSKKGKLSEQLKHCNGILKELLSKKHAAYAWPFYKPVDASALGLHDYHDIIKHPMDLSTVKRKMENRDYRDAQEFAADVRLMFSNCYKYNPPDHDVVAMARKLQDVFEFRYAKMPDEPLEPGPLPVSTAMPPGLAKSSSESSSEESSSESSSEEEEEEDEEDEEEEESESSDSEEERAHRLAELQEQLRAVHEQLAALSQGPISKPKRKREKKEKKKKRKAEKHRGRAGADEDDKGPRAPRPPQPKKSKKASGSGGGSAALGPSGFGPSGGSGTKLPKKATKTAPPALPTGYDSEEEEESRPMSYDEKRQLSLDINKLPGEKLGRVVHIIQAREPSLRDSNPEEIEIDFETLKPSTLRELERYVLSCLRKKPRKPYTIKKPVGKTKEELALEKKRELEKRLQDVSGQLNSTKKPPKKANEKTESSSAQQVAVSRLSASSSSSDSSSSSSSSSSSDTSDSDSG

Turning to `COc1cc2c(cc1-c1c(C)noc1C)[nH]c1ccnc(-c3c(C4CC4)n[nH]c3C)c12`, the Kd was 10 µM in assay [1] and 0.047 µM in assay [3]. In addition, the affinity in assay [2] corresponds to a Ki of 0.0117 µM.

What is called Kd is a measure of binding affinity in units of concentration. Low readings indicate higher affinity, high ones lower affinity. By Ki is commonly meant the dissociation constant of the complex between target and ligand, obtained from inhibition or displacement. A lower Ki goes with tighter binding.

For the origin of these results see ChEMBL document CHEMBL3580597 (J Med Chem, 2015).
